Where two headings read alike, the source gives them in different places.
What was measured:
[1] = biological target: T1, PARP1 (Homo sapiens, UniProt P09874); assay: in vitro PARP1 enzyme assay; conditions: for fold improvement in PARP1 activity compared to lead 4: vs unsubstituted lead 4 (IC50 = 5.8 μM); for inhibition at 5 µM: read-out: PARP1 inhibition at 5 μM
[2] = biological target: T1, PARP1; conditions: read-out: PARP1 IC50, literature value; cited from earlier work
[3] = biological target: T1, PARP1; assay: BPS PARP1 Chemiluminescent Activity Assay Kit; assay type: biochemical

T1 sequence (P09874 whole entry): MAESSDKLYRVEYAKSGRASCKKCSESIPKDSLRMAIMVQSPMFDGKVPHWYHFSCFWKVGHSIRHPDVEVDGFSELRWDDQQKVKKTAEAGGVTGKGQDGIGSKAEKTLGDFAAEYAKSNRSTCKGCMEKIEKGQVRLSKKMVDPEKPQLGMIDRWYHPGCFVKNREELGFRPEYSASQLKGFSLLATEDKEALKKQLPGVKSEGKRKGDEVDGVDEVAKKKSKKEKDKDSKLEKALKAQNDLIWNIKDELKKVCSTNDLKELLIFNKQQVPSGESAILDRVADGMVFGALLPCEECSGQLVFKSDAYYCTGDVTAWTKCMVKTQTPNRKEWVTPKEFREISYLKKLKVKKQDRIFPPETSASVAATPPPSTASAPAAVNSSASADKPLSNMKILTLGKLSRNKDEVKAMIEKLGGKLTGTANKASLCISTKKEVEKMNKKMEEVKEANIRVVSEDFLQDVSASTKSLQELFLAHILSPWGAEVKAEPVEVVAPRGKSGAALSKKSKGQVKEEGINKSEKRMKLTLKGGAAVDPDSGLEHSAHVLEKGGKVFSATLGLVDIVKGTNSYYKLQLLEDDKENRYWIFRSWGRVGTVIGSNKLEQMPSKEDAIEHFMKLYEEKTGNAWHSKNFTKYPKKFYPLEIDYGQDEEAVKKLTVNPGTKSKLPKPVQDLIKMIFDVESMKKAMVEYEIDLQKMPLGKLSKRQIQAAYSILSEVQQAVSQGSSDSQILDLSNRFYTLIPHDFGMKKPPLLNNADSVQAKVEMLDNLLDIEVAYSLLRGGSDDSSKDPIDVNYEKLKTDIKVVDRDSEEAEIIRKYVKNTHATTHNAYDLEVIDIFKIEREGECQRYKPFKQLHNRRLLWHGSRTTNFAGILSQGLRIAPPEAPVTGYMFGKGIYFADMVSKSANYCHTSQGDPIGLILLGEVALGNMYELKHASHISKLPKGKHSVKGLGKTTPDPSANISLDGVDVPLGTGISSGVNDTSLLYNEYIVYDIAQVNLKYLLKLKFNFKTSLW

Structure (SMILES) | inhibition at 5 µM [1] [%] | other results
CS(=O)(=O)OC[C@@H]1COc2cccc(C(N)=O)c2O1 [Compound 21b, (S)-(8-Carbamoyl-2,3-dihydrobenzo[b][1,4]dioxin-2-yl)methyl methanesulfonate] |  | fold improved PARP1 activity over 25a ([1]; vs hydroxymethyl precursor 25a): ~ 10 fold; fold improvement in PARP1 activity compared to lead 4 [1]: ~ 8 fold
CN1CCN(C[C@H]2COc3c(cccc3C(N)=O)O2)CC1 [Compound 22a, (S)-2-((4-Methylpiperazin-1-yl)methyl)-2,3-dihydrobenzo[b][1,4]dioxine-5-carboxamide] | < 20 | 
CN1CCN(C[C@@H]2COc3cccc(C(N)=O)c3O2)CC1 [Compound 22b, (R)-3-((4-Methylpiperazin-1-yl)methyl)-2,3-dihydrobenzo[b][1,4]dioxine-5-carboxamide] | < 20 | 
NC(=O)c1cccc2c1OC[C@H](CN1CCN(c3ncccn3)CC1)O2 [Compound 23a, (S)-2-((4-(Pyrimidin-2-yl)piperazin-1-yl)methyl)-2,3-dihydrobenzo[b][1,4]dioxine-5-carboxamide] | < 20 | 
NC(=O)c1cccc2c1O[C@H](CN1CCN(c3ncccn3)CC1)CO2 [Compound 23b, (R)-3-((4-(Pyrimidin-2-yl)piperazin-1-yl)methyl)-2,3-dihydrobenzo[b][1,4]dioxine-5-carboxamide] | < 20 | 
CS(=O)(=O)OC[C@H]1COc2cccc(C(N)=O)c2O1 [Compound 26b, (R)-(8-Carbamoyl-2,3-dihydrobenzo[b][1,4]dioxin-2-yl)methyl methanesulfonate] |  | fold improvement in PARP1 activity compared to lead 4 [1]: ~ 5 fold
CN1CCN(C[C@@H]2COc3c(cccc3C(N)=O)O2)CC1 [Compound 27a, (R)-2-((4-Methylpiperazin-1-yl)methyl)-2,3-dihydrobenzo[b][1,4]dioxine-5-carboxamide] | < 20 | 
CN1CCN(C[C@H]2COc3cccc(C(N)=O)c3O2)CC1 [Compound 27b, (S)-3-((4-Methylpiperazin-1-yl)methyl)-2,3-dihydrobenzo[b][1,4]dioxine-5-carboxamide] | < 20 | 
NC(=O)c1cccc2c1OC[C@@H](CN1CCN(c3ncccn3)CC1)O2 [Compound 28a, (R)-2-((4-(Pyrimidin-2-yl)piperazin-1-yl)methyl)-2,3-dihydrobenzo[b][1,4]dioxine-5-carboxamide] | < 20 | 
NC(=O)c1cccc2c1O[C@@H](CN1CCN(c3ncccn3)CC1)CO2 [Compound 28b, (S)-3-((4-(Pyrimidin-2-yl)piperazin-1-yl)methyl)-2,3-dihydrobenzo[b][1,4]dioxine-5-carboxamide] | < 20 | 
NC(=O)c1cccc2c1OCO2 [Compound 31, Benzo[d][1,3]dioxole-4-carboxamide] |  | IC50 [2]: 5300 nM
NC(=O)c1cccc2c1OCCCO2 [Compound 32, 3,4-Dihydro-2H-benzo[b][1,4]dioxepine-6-carboxamide] |  | inhibition at 2.5 µM ([1]; read-out: PARP1 inhibition at 2.5 μM): 15%
NC(=O)c1cccc2c1OCCN2 [Compound 44, 3,4-Dihydro-2H-benzo[b][1,4]oxazine-8-carboxamide] |  | fold less potent than 4 (PARP1) ([1]; vs 4): ~ 2 fold
NC(=O)c1cccc2c1OCC(=O)N2 [Compound 45, 3-Oxo-3,4-dihydro-2H-benzo[b][1,4]oxazine-8-carboxamide] |  | fold enhanced PARP1 activity in comparison to 44 ([1]; vs 44): 15 fold
NC(=O)c1cccc2c1O/C(=C\c1ccc(C(=O)O)cc1)C(=O)N2 [Compound 50, (Z)-2-(4-Carboxybenzylidene)-3-oxo-3,4-dihydro-2H-benzo[b][1,4]oxazine-8-carboxamide] |  | IC50 [3]: 420 ± 46 nM

From paper PMC8142146 (Bioorganic chemistry, 2020)
